Patent US5968487A (L'Oreal, priority 1996, dated 1999)

Molecular target: T1, human melanocyte tyrosinase (Homo sapiens, UniProt P14679)
T1 construct: endogenous in cells; host or cells: cultured human melanocytes (Triton X-100 / ultrasound extract after 3 days' culture with the compound)
T1 sequence (P14679 19-529): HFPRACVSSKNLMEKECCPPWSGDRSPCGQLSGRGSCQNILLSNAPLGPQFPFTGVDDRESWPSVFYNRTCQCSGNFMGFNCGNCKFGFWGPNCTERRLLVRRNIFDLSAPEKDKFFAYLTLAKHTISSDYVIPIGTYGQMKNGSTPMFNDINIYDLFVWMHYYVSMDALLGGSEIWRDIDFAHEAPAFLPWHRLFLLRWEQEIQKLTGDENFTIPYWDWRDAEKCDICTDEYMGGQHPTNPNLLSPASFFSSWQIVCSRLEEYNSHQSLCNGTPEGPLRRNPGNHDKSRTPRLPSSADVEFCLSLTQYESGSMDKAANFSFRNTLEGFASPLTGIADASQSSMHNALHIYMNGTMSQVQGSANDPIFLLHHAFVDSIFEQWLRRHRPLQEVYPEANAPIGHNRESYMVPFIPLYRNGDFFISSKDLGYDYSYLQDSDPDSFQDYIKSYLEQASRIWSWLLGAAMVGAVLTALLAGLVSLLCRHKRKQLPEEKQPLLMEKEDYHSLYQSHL
Experiment: dopa-oxidase activity of human melanocyte tyrosinase after 3-day culture of melanocytes with the compound
Type: cell-based
Conditions: human melanocytes cultured three days with compound; lysate + 5 mM L-dopa, absorbance at 475 nm (dopachrome), 25° C., 60 minutes; read-out: IC50, concentration of active product required to obtain a 50% inhibition of the production of melanin
Experimental: After three days, the melanocytes were "trypsinized" in a mixture of trypsin/0.05% EDTA/0.02% in a phosphate buffer (50 mM at pH 6.8), washed three times in phosphate buffer containing 1% (w/v) Triton X-100 and subjected to ultrasound. After centrifugation, samples were taken and mixed with 5 mM L-dopa in phosphate buffer. The tyrosinase activity was evaluated by spectrophotometry by measuring the increase in the absorbance at 475 nm due to the formation of dopachrome from 5 mM dopa. The absorbance was read on a microplate reader at 25° C. for 60 minutes.
The activity of the cellular tyrosinase is measured relative to a standard range prepared with commercial tyrosinase.
The value of IC50, i.e., the concentration of active product required to obtain a 50% inhibition of the production of melanin, is determined.

IC50: 200 to 300 µM
SMILES: O=C1NC(C(=O)OCc2cc(=O)c(O)co2)CS1 (stereo not shown) [5-hydroxy-4-oxo-4H-pyran-2-ylmethyl 2-oxothiazolidine-4-carboxylate]
